The structures appear in SMILES notation. Like-named read-outs stand apart in the source and are kept apart here.

Data set [1] concerns HPL1D. The data set is described as follows: Sensitivity of cell proliferation to erlotinib. In kind it is cell-based. Particulars: Homo sapiens, read-out: IC50 (Erlotinib) HPL1D; EGFR WT, KRAS WT. From the text:
(§1) NHBE (normal human bronchiolar epithelial cells) are primary cells obtained from donor lungs and commercially available from Cambrex. The HPLID (human peripheral lung epithelial) cell line has been immortalized with the SV40 large T-antigen. WI-38: human lung fibroblast cell line. HPLID, NHBE and WI-38 cells will serve as controls in the chemical screens. WT: wildtype; WT*: over-expressed wildtype.

The test system of data set [2] is H1650. Briefly: Non Small Cell Lung Cancer Proliferation Assay (Alamar Blue). In kind it is cell-based, human. Particulars: for inhibition at 10 µM: NCI-H1650. Here is the method: (§2) Non Small Cell Lung Cancer cell lines are grown and maintained in Corning 175 cm2 flasks in RPMI 1640 media supplemented with 10% FBS, 1% antibiotic solution, 1% additional glutamine and pyruvate. These cells have a doubling time of 1-2 days. All cell types are adherent and grow in colonies. The cells should be kept at a density between 50,000 cells/mL-500,000 cells/mL to provide for optimum growth and adequate nutrition. The cell line should be maintained at 37° C. in a humidified atmosphere with 5% CO2 in a sterile cell culture incubator.
(§3) To perform the assay, the Non Small Cell Lung Cancer lines are diluted in media and plated into 384 well microplates at a final density of 250 cells in 45 μL. To ensure consistency and minimal pipetting error, the cells are plated using the Multidrop 384 with the following settings: Rocker Switch set at 384, Volume 45 and Column 24.
(§4) Low Controls for this assay are made by treating Non Small Cell Lung Cancer cells with 5 ul of staurosporine at 250 uM in 10% DMSO and 1% SDS. [Final concentration in this assay is 25 uM staurosporine in 1% DMSO and 0.1% SDS.]
(§5) High Controls for this assay are made by treating Non Small Cell Lung Cancer cells with 5 ul of 10% DMSO. [Final concentration in this assay is 1% DMSO].
(§6) The remaining wells of the 384 microplate may be treated with different compounds depending on the study. Important Note: All compounds for testing in this assay should be done at the final concentration of 1% DMSO.
(§7) After addition, the cells are placed in cell culture incubator at 37° C. for 48 hours for complete treatment.
(§8) After drug treatment, cytotoxicity is measured by Alamar Blue reduction. 5 μL of Alamar Blue is added to the 384 microplates using the Flexdrop.
(§9) The cells are incubated for 48 hours at 37° C. to complete the Alamar Blue reduction.
(§10) The final step in the assay is to measure the amount of Alamar Blue reduction. […] The Alamar Blue fluorescence is measured at an excitation of 530 nm and emission of 590 nm.
(§11) For the NSCLC project, the cell based assay was screened against a small molecule library of approximately 200,000 compounds. The compound library is stored in our automated robotic freezer (Biophile) at −20° C. in 100% DMSO. Compound freeze and thaw cycles are kept to a minimum. Compounds for use are diluted into the appropriate concentration and plated into 384 well microplates using our custom built low volume 384-well head tool (TPS 384, Apricot Designs Inc., CA, USA). This assay was performed on a fully automated linear track robotic platform (CRS F3 Robot System, Thermo Electron Corp., Ontario, Canada) utilizing several integrated peripherals for plate handling, liquid dispensing, and readout detection. First, non-small cell lung cancer cell lines are dispensed into 384 well microplates (Corning #3712 Tissue Culture Treated Plate, Corning, N.Y., USA) with 5 μL of test compounds at 100 uM in 10% DMSO for screening studies or 1 mM in 10% DMSO to 50 nM in 10% DMSO for dose response studies. The microplates are then placed at 37° C. for 48 hours to complete treatment of cells with compounds. Next, 5 ul of alamar blue was added using a liquid dispenser (FlexDrop Precision Dispenser, Perkin Elmer, Mass., USA) and incubated for 48 hours at 37° C. The alamar blue prompt fluorescence was measured on Victor V (Victor^3 V, Perkin Elmer, Mass., USA) and output data files were loaded into ORIS (Oncology Research Informatics System, MSKCC, NY, USA), a screening data acquisition and analysis platform.
(Alamar Blue is a resazurin reagent that responds to reducing activity.)

The subject of data set [3] is H1975. Described as above. Type of data set: cell-based, human. Particulars: for inhibition at 10 µM: NCI-H1975. Here is the method: as §2, §3, §4, §5, §6, §7, §8, §9, §10, §11
The subject of data set [4] is H2030. Described as above. In kind it is cell-based, human. The note with it: for inhibition at 10 µM: NCI-H2030. Here is the method:
(§12) These cells have a doubling time of 1-2 days. All cell types are adherent and grow in colonies. The cells should be kept at a density between 50,000 cells/mL-500,000 cells/mL to provide for optimum growth and adequate nutrition. The cell line should be maintained at 37° C. in a humidified atmosphere with 5% CO2 in a sterile cell culture incubator.
(§13) To perform the assay, the Non Small Cell Lung Cancer lines are diluted in media and plated into 384 well microplates at a final density of 250 cells in 45 μL.
as §5
(§14) Important Note: All compounds for testing in this assay should be done at the final concentration of 1% DMSO.
as §7
(§15) After drug treatment, cytotoxicity is measured by Alamar Blue reduction.
as §9, §10
as §11, with “Compounds for use are diluted into the appropriate concentration and plated into 384 well microplates using our custom built low volume 384-well head tool (TPS 384, Apricot Designs Inc., CA, USA).” left out, “First, non-small cell lung cancer cell lines are dispensed into 384 well microplates (Corning #3712 Tissue Culture Treated Plate, Corning, N.Y., USA) with 5 μL of test compounds at 100 uM in 10% DMSO for screening studies or 1 mM in 10% DMSO to 50 nM in 10% DMSO for dose response studies.” left out

The test system of data set [5] is H3255. The description is as above. In kind it is cell-based, human. The note with it: for inhibition at 10 µM: NCI-H3255. As to the method: as §12, §13, §5, §14, §7, §15, §9, §10
as §11, with “Compounds for use are diluted into the appropriate concentration and plated into 384 well microplates using our custom built low volume 384-well head tool (TPS 384, Apricot Designs Inc., CA, USA).” left out, “First, non-small cell lung cancer cell lines are dispensed into 384 well microplates (Corning #3712 Tissue Culture Treated Plate, Corning, N.Y., USA) with 5 μL of test compounds at 100 uM in 10% DMSO for screening studies or 1 mM in 10% DMSO to 50 nM in 10% DMSO for dose response studies.” left out

For data set [6], the system named is 15 non small cell lung cancer lines representing various EGFR and KRAS mutations. Briefly: Dose response studies against 15 NSCLC lines (alamar blue). Type of data set: cell-based, human. The note with it: Homo sapiens. As to the method: Dose response studies against 34 compounds from the pyridazinone and phenylfuran-carboxamide class were conducted. […] In addition, Tarceva was included in these dose response studies.
The dose response studies were done with the following standard procedure. First, the cells were counted and dispensed at 250 cells/well into 384-well microplates with compound. The cells were incubated for 48 hours at 37 C to complete treatment, and then alamar blue was added for an additional 48 hours. Finally, alamar blue reduction was measured and the data was loaded into ORIS, our data screening acquisition platform.

Data set [7] can be described thus: in vitro. Particulars: human. As to the method: as §1
Compounds were tested in dose response studies from 10 μM to 5 nM against several non small cell lung cancer lines: H358, H827, H1118, H1650, H1734, H1975, H2030, and H3255, and were also studied in a 72 hour cytotoxicity assay against the NHBE and WI-38 cell lines.

Data set [8] relates to H358. Briefly: Non Small Cell Lung Cancer Proliferation Assay (Alamar Blue), dose response. Particulars: Homo sapiens, NCI-H358, read-out: H358 Dose Response (uM).
Protocol: (§16) This assay was performed on a fully automated linear track robotic platform (CRS F3 Robot System, Thermo Electron Corp., Ontario, Canada) utilizing several integrated peripherals for plate handling, liquid dispensing, and readout detection. […] The microplates are then placed at 37° C. for 48 hours to complete treatment of cells with compounds. Next, 5 ul of alamar blue was added using a liquid dispenser (FlexDrop Precision Dispenser, Perkin Elmer, Mass., USA) and incubated for 48 hours at 37° C. The alamar blue prompt fluorescence was measured on Victor V (Victor^3 V, Perkin Elmer, Mass., USA) and output data files were loaded into ORIS (Oncology Research Informatics System, MSKCC, NY, USA), a screening data acquisition and analysis platform. […]
In data set [9] the test system is H827. The description is as above. Particulars: Homo sapiens, read-out: H827 Dose Response (uM).
Protocol: as §16
Data set [10] concerns H1118. The description is as above. The note with it: Homo sapiens, read-out: H1118 Dose Response (uM).
Protocol: as §16
In data set [11] the test system is H1734. The data set is described as above. Particulars: Homo sapiens, NCI-H1734, read-out: H1734 Dose Response (uM).
Protocol: as §16
[12] abbreviates: Homo sapiens, percentage inhibition, H1650, screening concentration of 10 μM compound in 1% DMSO (v/v), read-out: R1650 PRIMARY HTS [%].
[13] abbreviates: Homo sapiens, percentage inhibition, H1975, screening concentration of 10 μM compound in 1% DMSO (v/v), read-out: R1975 PRIMARY HTS [%].
Where [14] appears, read: Homo sapiens, percentage inhibition, H2030, screening concentration of 10 μM compound in 1% DMSO (v/v), read-out: H2030 PRIMARY HTS [%].
[15] abbreviates: Homo sapiens, percentage inhibition, H3255, screening concentration of 10 μM compound in 1% DMSO (v/v), read-out: H3255 PRIMARY HTS [%].
The mark [16] stands for this setting: confirmation, percentage inhibition, 10 μM compound in 1% DMSO (v/v).
The mark [17] stands for this setting: Homo sapiens, primary screening, 10 μM compound in 1% DMSO (v/v), read-out: percentage inhibition H1650.
[18] abbreviates: Homo sapiens, primary screening, 10 μM compound in 1% DMSO (v/v), read-out: percentage inhibition H1975.
The mark [19] stands for this setting: Homo sapiens, primary screening, 10 μM compound in 1% DMSO (v/v), read-out: percentage inhibition H2030.
The mark [20] stands for this setting: Homo sapiens, primary screening, 10 μM compound in 1% DMSO (v/v), read-out: percentage inhibition H3255.
[21] abbreviates: primary screening, 10 μM compound in 1% DMSO (v/v).

For `C#Cc1cccc(Nc2ncnc3cc(OCCOC)c(OCCOC)cc23)c1` [Erlotinib, erlotinib], the IC50 in data set [1] worked out at 10 µM.

Regarding `O=C(Nc1ccc(NC(=O)c2ccco2)c(Cl)c1)c1ccccc1` [compound 76839], the inhibition at 10 µM in [2] (setting [12]) is 20%; in data set [3] (setting [13]), 3%; in [4] (setting [14]), -6%; in data set [5] (setting [15]), 2%.

Turning to `O=C(Nc1ccc(Cl)cc1)c1ccc([N+](=O)[O-])o1` [compound 98698, 5-nitro-furan-2-carboxylic acid (4-chloro-phenyl)-amide], in data set [3] (setting [16]), the “CONFIRMATION [%] 1975” value is reported as 57%. Moreover, the “CONFIRMATION [%] 2030” value in data set [4] (setting [16]) amounted to 98%. The IC50 in data set [6] (read-out: IC50 H23) was 0.6 µM; in data set [6] (read-out: IC50 H1118), 0.53 µM; in [6] (read-out: IC50 HPL1D) it was > 10 µM; in data set [6] (read-out: IC50 PC9), 1.58 µM.

With `Cc1cccc(-n2ncc(Cl)c(Cl)c2=O)c1` [compound 104122, 4,5-dichloro-2-m-tolyl-2H-pyridazin-3-one], the IC50 at 72 h in data set [7] (NHBE CytoTox (uM)) was found to be 3.4 µM. Besides, the IC50 in data set [6] (read-out: IC50 H23) is 0.21 µM; in data set [6] (read-out: IC50 H1118), 0.34 µM; in data set [6] (read-out: IC50 HPL1D), 0.28 µM; in [6] (read-out: IC50 PC9) it was 0.65 µM.

For the molecule `Cc1cccnc1NC(=O)c1ccc([N+](=O)[O-])o1` [compound 108321], the inhibition at 10 µM in [2] (setting [12]) was 38%; in [3] (setting [13]), -7%; in data set [4] (setting [14]) it was 6%; in data set [5] (setting [15]), 2%.

Regarding `O=c1c2c(cnn1-c1ccccc1)SC(c1ccccc1)S2` (stereo not drawn) [compound 182826], the inhibition at 10 µM in [2] (setting [17]) was 13%; in data set [3] (setting [18]) it was 12%; in data set [4] (setting [19]), -11%; in data set [5] (setting [20]) it was -13%.

Consider `N#Cc1ccccc1-n1nc(C(=O)c2cccs2)cc(-c2nc3ccccc3[nH]2)c1=N` [compound 186926], for which the inhibition at 10 µM in data set [2] (setting [17]) was 27%; in data set [3] (setting [18]), 81%; in [4] (setting [19]), 2%; in data set [5] (setting [20]), 52%.

In the case of `Cc1c(Oc2ccccc2)nnn1-c1cnn(-c2ccccc2)c(=O)c1Br` [compound 223337], the “percentage inhibition H1650” value in data set [2] (setting [21]) amounted to 13%. The “percentage inhibition H1975” value in [3] (setting [21]) came to 5%. Moreover, the “percentage inhibition H2030” value in [4] (setting [21]) was −14%. Also, the “percentage inhibition H3255” value in data set [5] (setting [21]) worked out at 61%.

For `CN/N=C1\C=NN(c2ccccc2)C(=O)C1Cl` (stereo not drawn) [compound 257024], the IC50 in [2] (Homo sapiens, NCI-H1650, dose response 10 μM to 5 nM) was > 10 µM; in data set [3] (Homo sapiens, NCI-H1975, dose response 10 μM to 5 nM), > 10 µM; in data set [4] (Homo sapiens, NCI-H2030, dose response 10 μM to 5 nM), > 10 µM; in data set [5] (Homo sapiens, NCI-H3255, dose response 10 μM to 5 nM), > 10 µM; in [8], > 10 µM; in data set [9] it was > 10 µM. Besides, the IC50 in data set [10] and in data set [11] was > 10 µM throughout. In addition, the IC50 at 72 h in [7] and in [7] (NHBE CytoTox (uM)) was > 10 µM in each case.

For the origin of these results see US20130131062A1, “PYRIDAZINONES AND FURAN-CONTAINING COMPOUNDS” (priority 2006, published 2013).
